Test results reported in patent US12325685B2, “RXR agonist salt form, polymorphs thereof, and uses thereof” (Io Therapeutics, Inc., priority 2022, dated 2025).
Values after ≈ are worked out from the molar mass of the structure shown.

Tests used:
[1] = Kinetic solubility at 37° C. in water and three biorelevant media; assay type: physicochemical
Experimental: Example 7: Kinetic Solubility. Kinetic solubility measurements were conducted on Compound 1 (a free acid) and Form A Tris salt of Compound 1 at 37° C. in water and three biorelevant media: synthetic gastric fluid; fed synthetic small intestinal fluid; and fasting synthetic small intestinal fluid.

[2] = Approximate (thermodynamic) solubility in solvents at room temperature; assay type: physicochemical; settings: for solubility: organic solvent or mixture, thermodynamic from solid
[3] = Fasting Synthetic Small Intestinal Fluid, 37° C., 1 Hr
[4] = Fasting Synthetic Small Intestinal Fluid, 37° C., 4 Hrs
[5] = Fasting Synthetic Small Intestinal Fluid, 37° C., 24 Hrs
[6] = Fed Synthetic Small Intestinal Fluid, 37° C., 1 Hr
[7] = Fed Synthetic Small Intestinal Fluid, 37° C., 4 Hrs
[8] = Fed Synthetic Small Intestinal Fluid, 37° C., 24 Hrs
[9] = Synthetic Gastric Fluid, 37° C., 1 Hr
[10] = Synthetic Gastric Fluid, 37° C., 4 Hrs
[11] = Synthetic Gastric Fluid, 37° C., 24 Hrs

Observed kinetic aqueous solubility S [1, 3] [mg/mL]	pH [1, 3]	Observed kinetic aqueous solubility S [1, 4] [mg/mL]	pH [1, 4]	Observed kinetic aqueous solubility S [1, 5] [mg/mL]	pH [1, 5]	Observed kinetic aqueous solubility S [1, 6] [mg/mL]	pH [1, 6]	Observed kinetic aqueous solubility S [1, 7] [mg/mL]	pH [1, 7]	pH [1, 8]	pH [1, 9]	pH [1, 10]	pH [1, 11]	Observed kinetic aqueous solubility S ([1]; Water, 37° C., 1 Hr) [mg/mL]	pH ([1]; Water, 37° C., 1 Hr)	Observed kinetic aqueous solubility S ([1]; Water, 37° C., 4 Hrs) [mg/mL]	pH ([1]; Water, 37° C., 4 Hrs)	Observed kinetic aqueous solubility S ([1]; Water, 37° C., 24 Hrs) [mg/mL]	pH ([1]; Water, 37° C., 24 Hrs)	SMILES	other results
0.05	6.48	0.06	6.88	0.04	7.50	0.10	5.09	0.10	5.17	5.21	1.67	1.78	1.92	0.03	7.78	0.03	7.83	0.01	8.33	CC(/C=C/[C@@H]1C[C@]1(C)c1ccc2c(c1)C(C)(C)CCC2(C)C)=C\C(=O)O [Compound 1, (2E,4E)-3-methyl-5-((1 S,2S)-2-methyl-2-(5,5,8,8-tetramethyl-5,6,7,8-tetrahydronaphthalen-2-yl)cyclopropyl)penta-2,4-dienoic acid]	Observed kinetic aqueous solubility S [1, 8]: 0.44 mg/mL; kinetic solubility in synthetic gastric fluid (in words) ([1]; synthetic gastric fluid): poor or undetectable; solubility kinetic at 4 h ([1]; synthetic gastric fluid, 37 °C, simulated gastric fluid, thermodynamic from solid, Synthetic Gastric Fluid, 37° C., 4 Hrs, ND = No Detectable signal by HPLC, read-out: Observed kinetic aqueous solubility S): 20 µg/mL (≈ 0.0567 mM); Approximate Solubility ([2]; 2-Butanol, listed as Compound 1 (Free Acid)): 108.9 to 140.0 mg/mL; Approximate Solubility ([2]; Isopropanol, listed as Compound 1 (Free Acid)): 71.8 to 87.8 mg/mL; Approximate Solubility ([2]; Water, listed as Compound 1 (Free Acid)): 0.03 mg/mL; solubility ([2]; ethanol): 74.9 to 91.5 mg/mL (≈ 212 to 260 mM); solubility ([2]; methanol): 57.4 to 73.1 mg/mL (≈ 163 to 207 mM)
0.74	6.93	0.83	7.83	0.86	9.37	2.54	5.91	0.41	6.84	7.33	1.76	1.96	2.12	0.29	2.68	0.17	3.21	0.14	9.3	CC(/C=C/[C@@H]1C[C@]1(C)c1ccc2c(c1)C(C)(C)CCC2(C)C)=C\C(=O)O [Tris Form A]	solubility kinetic at 24 h ([1]; fed synthetic small intestinal fluid, 37 °C, fessif, thermodynamic from solid, Fed Synthetic Small Intestinal Fluid, 37° C., 24 Hrs, read-out: Observed kinetic aqueous solubility S): 340 µg/mL (≈ 0.964 mM); kinetic aqueous solubility compared to Compound 1 ([1]; relative to free acid, see Table 1): approximately an order of magnitude, or more; kinetic solubility in synthetic gastric fluid (in words) ([1]; synthetic gastric fluid): poor or undetectable; Approximate Solubility ([2]; 2-Butanol, listed as TRIS salt Form A): >15.00 mg/mL; Approximate Solubility ([2]; Ethanol, listed as TRIS salt Form A): >40.00 mg/mL; Approximate Solubility ([2]; Isopropanol, listed as TRIS salt Form A): 8.83 to 10.60 mg/mL; Approximate Solubility ([2]; Methanol, listed as TRIS salt Form A): >88.00 mg/mL; Approximate Solubility ([2]; Water, listed as TRIS salt Form A): 0.29 mg/mL
